Measurements reported in patent publication US5486531A, “Hydroxymethylfurazancarboxylic acid derivatives” (Cassella Aktiengesellschaft, priority 1993, dated 1996).
Counter-ions that a name gives are not always drawn. Like-named read-outs stand apart in the source and are kept apart here.

System: spiral strips of the arteria pulmonalis of the guinea pig
Experiment: relaxing effect on spiral strips of guinea pig arteria pulmonalis, contraction elicited by CaCl2 after depolarization with potassium (modified Godfraind and Kaba / Schuman)
Assay type: cell-based
Conditions: Cavia porcellus, read-out: IC50 (concentration of the test substance which inhibits the contraction by 50%)
Method: For this, spiral strips of the arteria pulmonalis of the guinea pig are depolarized,following equilibration in calcium-free Tyrode solution, with 40 mmol/l potassium. Addition of 0.5 mmol/l CaCl2 then elicits a contraction. The relaxing effect of the test substance is determined by adding it cummulatively.

[1] = depolarized with 40 mmol/l potassium, contraction by 0.5 mmol/l CaCl2, cumulative addition, average value from 4 to 6 vessel strips

Row | Compound | IC50 [1] | IC50
1 | CC(C)NC(=O)c1c(CO)no[n+]1[O-] [Compound 1 I, 4-Hydroxymethyl-N-isopropyl-2-oxyfurazan-3-carboxamide] | 8 µM | 
2 | COCCNC(=O)c1c(CO)no[n+]1[O-] [Example 18, 4-Hydroxymethyl-N-(2-methoxyethyl)-2-oxyfurazan-3-carboxamide] | 8 µM | 
3 | O=C(NCc1cccnc1)c1c(CO)no[n+]1[O-] [Example 8, 4-Hydroxymethyl-N-(3-pyridylmethyl)-2-oxyfurazan-3-carboxamide hydrochloride] | 8 µM | 
4 | C[C@@H](NC(=O)c1c(CO)no[n+]1[O-])c1ccccc1 [Example 24, 4-Hydroxymethyl-N-((R)-1-phenylethyl)-2-oxyfurazan-3-carboxamide] | 2 µM | 
5 | NC(=O)c1c(CO)no[n+]1[O-] [Compound 3 I, 4-Hydroxymethyl-2-oxyfurazan-3-carboxamide] | 12 µM | 
6 | O=[N+]([O-])O[C@@H]1CO[C@H]2[C@@H]1OC[C@@H]2O [Isosorbide 5-mononitrate, isosorbide 5-mononitrate, reference compound] |  | > 100 µM
7 | CCOC(=O)[N-]c1cn(N2CCOCC2)n[o+]1 [Molsidomine, molsidomine, reference compound] | 300 µM | 
8 | C[C@H](NC(=O)c1c(CO)no[n+]1[O-])c1ccccc1 [Example 23, 4-Hydroxymethyl-N-((S)-1-phenylethyl)-2-oxyfurazan-3-carboxamide] | 15 µM | 
9 | CNC(=O)c1c(CO)no[n+]1[O-] [Example 4 I, 4-Hydroxymethyl-N-methyl-2-oxyfurazan-3-carboxamide] | 7.3 µM | 
10 | NS(=O)(=O)c1ccc(CCNC(=O)c2c(CO)no[n+]2[O-])cc1 [Example 26, 4-Hydroxymethyl-N-[2-(4-sulphamoylphenyl)-ethyl]-2-oxyfurazan-3-carboxamid] | 11 µM | 
